According to patent US8394776B2, “Use of ursolic acid saponin,oleanolic acid saponin in preparation of increasing leucocytes and/or platelet medicine” (Chengdu Di'Ao Jiuhong Pharmaceutical Factor, priority 2007, dated 2013):
Marks after values point to notes of the source that are not given here.

Legend:
leukocytes (WBC) = assay: Cyclophosphamide-induced leukopenia in mice: leukocytes (WBC); type: in vivo, Kunming mice
Experimental: (§1) Further, in vivo experiments were carried out on the compounds involved in the present invention using animal models of cyclophosphamide-induced leukopenia in mice. Experimental methods are briefed as follows: Healthy Kunming mice, of which half were male and the other half were female, were divided into groups, each group incuding 18 mice, and those mice weighing 18-22 g were selected and divided into groups randomly according to their body weights. Each group was given a different drug, wherein the negative control group and model control group were given physiological saline of the same volume, and the positive control group was treated with granulocyte colony-stimulating factors 40 μg/kg through subcutaneous injection (injection volume: 0.1 ml/10 g). After administration for 3 days, except the negative control group, other treatment groups were treated with 100 mg/kg cyclophosphamide (CY) through lumbar injection once a day for three days to cause a decrease of leukocytes in mice. A drop of blood (20 μl) was taken from posterior orbital venous plexus to detect the hemogram to observe the situation of leukocytes and platelets on day 1, day 3 and/or day 5 after the final lumbar injection of cyclophosphamide (i.e day 1, day 3 and/or day 5 after modeling) (Note: Each treatment group was administrated incessantly). The mice were killed on day 5 after the final lumbar injection of cyclophosphamide (i.e day 5 after modeling), and the leukocytes (WBC) and platelets (PLT) of the hemogram index were counted.
This experiment mainly studies the effect of G-1, G-6 and G-8 of ursolic acid saponin in increasing leukocytes, and compares the therapeutic effects of aglycon of ursolic acid and oleanolic acid and of the compound G-22 which has been disclosed by a patent.
(§2) The purpose of this experiment is to study the effect of G-1, G-3, G-11 and G-12 of ursolic acid saponin and oleanolic acid saponin in increasing platelets, and to observe whether G-11 and G-12 of oleanolic acid saponin have an effect in increasing leukocytes.

[1] = system: bone marrow mononuclear cell (BMMNC); assay: Monocytic proliferation in bone marrow of mice cultured in vitro (SRB method); type: cell-based, KunMing mice; conditions: cultured 5 days; for Growth Rate of Proliferation %, 1 μg/ml: versus blank control
Text: 15-20 KunMing mice (purchased from Laboratory Animal Center of Zhengzhou University, Henan) of either sex were killed by cervical vertebral dislocation. Bilateral thighbones were isolated and caput femoris was cut off. The marrow was washed repeatedly with serum-free RPMI1640 (Gibco Corp.), the wash solution containing marrow cells was collected, sucked and blew repeatedly with a pipette to make the cells disperse. After standing for a moment, the supernatant was sucked up and centrifugated at 100 g for 3 min to collect the cell pellet. The cells were resuspended in a culture media and brought to a volume of 5 ml. The cell suspension was added to the upper layer of a centrifugal tube containing 5 ml of a lymphocyte separation medium of mice and centrifugated at 400 g for 30 min. The milk-white bone marrow mononuclear cell (BMMNC) layer in the middle of the interface was collected and washed with serum-free medium RPMI1640 for three times to obtain a BMMNC suspension, which was inoculated into a 96-well plate at forty thousand per well after counting. Positive drugs rhG-CSF (recombinant granulocyte colony-stimulating factor, manufactured by QI LU Pharmaceutical Co., LTD., Shandong) or test samples of different concentrations were added, and meanwhile a blank control group without drug was established. They were cultured in a 5% CO2 incubator at 37 for 5 days. Cell proliferation was measured by a conventional SRB (Sigma) method in which OD at 490 nm was measured after being dyed with SRB. The growth rates of cell proliferation after drug treatment were calculated (Growth rate of cell proliferation=experimental group-blank control group/blank control group*100%).

erythrocytes = assay: Comparison of hemolytic activities (HD50); type: cell-based, rabbit; conditions: for HD50 (drug concentration causing 50% hemolysis): 10% rabbit erythrocyte suspension, 37° C., 1 hour, from linear regression over 40-200 μg/ml
Experimental: The test samples were dissolved in DMSO/physiological saline (1:4) as a solvent to generate the tested concentration gradients of 40, 80, 120, 160, 200 μg/ml. Blood (25 ml) was taken from a rabbit heart, poured into an erlenmeyer flask containing glass beads and shook gently for 10 min to remove fibrinogen so as to convert the blood into defidrinated blood. The resultant blood was transferred into a graduation centrifugal tube. About 10 times physiological saline was added, shook up and centrifuged at 2000 r/min for 5 minutes. The supernatant was removed, and the precipitated erythrocytes were washed with physiological saline again by the above method for 4 times until the supernatant was colorless and transparent. The resulant erythrocytes were prepared into a 10% suspension using physiological saline for testing. 250 μl of the 10% erythrocyte suspension was added into 2.5 ml of a tested sample, solvent (blank control) or distilled water (positive control), mixed thoroughly, and immediately placed in a thermotank maintained at 37° C. for incubation; and it was taken out 1 hour later and centrifuged at 3000 r/min for 5 minutes. The supernatant was taken for determining the OD value at 540 nm with a spectrophotometer. Hemolysis (Hemolysis Percentage)=(absorbance of sample−absorbance of blank control)×100%÷(absorbance of positive control-absorbance of blank control); and the data processing was performed by SPSS13.0 statistical software with drug concentration as an independent variable X and hemolysis as a dependent variable Y to obtain a linear regression equation; then, the drug concentration causing 50% hemolysis, i.e HD50, was calculated according to the equation. A P-value <0.05 was considered statistically significant.

platelets (PLT) = assay: Cyclophosphamide-induced leukopenia in mice: platelets (PLT); type: in vivo, Kunming mice; conditions: Experimental Example 3; for difference in increasing platelets compared with G-22 (in words): day 5 after modeling
Experimental: as §1, §2

WBC = assay: 60Co-γ-induced leukopenia in mice: WBC; type: in vivo, Kunming mice
Text: In order to illustrate the present invention in detail, with a model induced by ^60Co-γ rays, the effects of G-1 and G-22 on leukocytes of chemotherapy-induced-leukopenia mice were compared. The specific operation and the results are as follows.
Healthy Kunming mice, of which half were male and the other half were female, were divided into 6 groups randomly, with 17-18 in each group. Blood was taken from caudal vein to determine the normal hemogram (leucocyte, erythrocyte, platelet and hemoglobin), and adjustments were made according to body weights and hemogram results. The normal control group and model group were given isometric physiological saline once a day for 7 days, and then the post-radiation hemogram was determined. Except the normal control group, other groups were each subjected to a whole body exposure to ^60Co-γ rays at a total dose of 3.0 Gy to prepare the models of leukopenia in mice, followed by further administration for 14 days. The G-CSF group was adminitrated through subcutaneous injection for 5 days from the irradiation day on and the hemogram was determined by taking blood respectively on day 3, day 7 and day 14 after irradiation.

[2] = Experimental Example 2, 0.8 mg/kg
[3] = Experimental Example 2, 0.8 mg/kg, CY 100 mg/kg x 3 days
[4] = Experimental Example 2, 0.8 mg/kg, especially on day 3 after modeling
[5] = Experimental Example 3, 0.8 mg/kg
[6] = Experimental Example 3, 0.8 mg/kg, day 5 after modeling
[7] = 0.80 mg/kg i.g., 3.0 Gy whole body
[8] = 40 μg/kg subcutaneous injection
[9] = Experimental Example 2, 40 μg/kg subcutaneous injection
[10] = Experimental Example 3, 40 μg/kg subcutaneous injection
[11] = 40 μg/kg s.c. for 5 days from irradiation day, 3.0 Gy

Molecule: C[C@H]1[C@H](C)CC[C@]2(C(=O)O)CC[C@]3(C)C(=CC[C@@H]4[C@@]5(C)CC[C@H](O[C@@H]6OC[C@H](O)[C@H](O)[C@H]6O)C(C)(C)[C@@H]5CC[C@]43C)[C@H]12 [Sample G-6, 3-O-(α-L-arabopyranosyl) ursolic acid]
- leukocytes (WBC), Day 3 after modeling (leukocytes (WBC); [2]): 7.13 ± 2.61**★
- leukocytes (WBC), Day 5 after modeling (leukocytes (WBC); [2]): 17.16 ± 14.13
- leukocytes (WBC), Day1 after modeling (leukocytes (WBC); [3]): 1.19 ± 0.47
- difference in increasing leukocytes compared with G-22 (in words) (leukocytes (WBC); [4]): obvious difference in increasing leukocytes
- Growth Rate of Proliferation %, 1 μg/ml [1]: 29.9%
- HD50 (drug concentration causing 50% hemolysis) (erythrocytes): 121.40 µg/mL

Molecule: C[C@H]1[C@H](C)CC[C@]2(C(=O)O[C@@H]3O[C@H](CO)[C@@H](O)[C@H](O)[C@H]3O)CC[C@]3(C)C(=CC[C@@H]4[C@@]5(C)CC[C@H](O[C@@H]6O[C@H](CO)[C@@H](O)[C@H](O)[C@H]6O)C(C)(C)[C@@H]5CC[C@]43C)[C@H]12 [Sample G-3, 3-O-(β-D-glucopyranosyl) ursolic acid-28-O-(β-D-glucopyranosyl) ester]
- platelets, Day 1 after modelng (platelets (PLT); 0.8 mg/kg): 473.12 ± 144.68
- platelets, Day 5 after modeling (platelets (PLT); 0.8 mg/kg): 341.93 ± 186.39**★
- difference in increasing platelets compared with G-22 (in words) (platelets (PLT); 0.8 mg/kg): significant difference in increasing leukocytes and platelets
- leukocytes, Day 1 after modeling (leukocytes (WBC); [5]): 1.16 ± 0.53
- leukocytes, Day 5 after modeling (leukocytes (WBC); [5]): 5.62 ± 2.78
- difference in increasing leukocytes compared with G-22 (in words) (leukocytes (WBC); [6]): significant difference in increasing leukocytes and platelets
- Growth Rate of Proliferation %, 1 μg/ml [1]: 25.2%
- HD50 (drug concentration causing 50% hemolysis) (erythrocytes): 137.99 µg/mL

Molecule: C[C@H]1[C@H](C)CC[C@]2(C(=O)O[C@@H]3O[C@H](CO)[C@@H](O)[C@H](O)[C@H]3O)CC[C@]3(C)C(=CC[C@@H]4[C@@]5(C)CC[C@H](O[C@@H]6OC[C@H](O)[C@H](O)[C@H]6O)C(C)(C)[C@@H]5CC[C@]43C)[C@H]12 [Sample G-8, 3-O-(α-L-arabopyranosyl) ursolic acid-28-O-(β-D-glucopyranosyl) ester]
- leukocytes (WBC), Day 3 after modeling (leukocytes (WBC); [2]): 6.91 ± 2.54**★
- leukocytes (WBC), Day 5 after modeling (leukocytes (WBC); [2]): 15.32 ± 9.07
- leukocytes (WBC), Day1 after modeling (leukocytes (WBC); [3]): 0.85 ± 0.39
- difference in increasing leukocytes compared with G-22 (in words) (leukocytes (WBC); [4]): obvious difference in increasing leukocytes
- Growth Rate of Proliferation %, 1 μg/ml [1]: 29.5%
- HD50 (drug concentration causing 50% hemolysis) (erythrocytes): 69.96 µg/mL

Molecule: C[C@H]1[C@H](C)CC[C@]2(C(=O)O[C@@H]3OC[C@H](O)[C@H](O)[C@H]3O)CC[C@]3(C)C(=CC[C@@H]4[C@@]5(C)CC[C@H](O[C@@H]6OC[C@H](O)[C@H](O)[C@H]6O)C(C)(C)[C@@H]5CC[C@]43C)[C@H]12 [Sample G-1, 3-O-(α-L-arabopyranosyl) ursolic acid-28-O-(α-L-arabopyranosyl) ester]
- effect in increasing platelets (in words) (platelets (PLT); 0.8 mg/kg): obvious effect in increasing leukocytes and platelets
- platelets, Day 1 after modelng (platelets (PLT); 0.8 mg/kg): 504.67 ± 117.81
- platelets, Day 5 after modeling (platelets (PLT); 0.8 mg/kg): 413.00 ± 218.95*★★
- difference in increasing platelets compared with G-22 (in words) (platelets (PLT); 0.8 mg/kg): significant difference in increasing leukocytes and platelets
- leukocytes (WBC), Day 3 after modeling (leukocytes (WBC); [2]): 7.85 ± 3.00**★★
- leukocytes (WBC), Day 5 after modeling (leukocytes (WBC); [2]): 15.46 ± 10.44
- leukocytes (WBC), Day1 after modeling (leukocytes (WBC); [3]): 1.14 ± 0.56Δ
- difference in increasing leukocytes compared with G-22 (in words) (leukocytes (WBC); [4]): obvious difference in increasing leukocytes
- effect in increasing leukocytes (in words) (leukocytes (WBC); [5]): obvious effect in increasing leukocytes and platelets
- leukocytes, Day 1 after modeling (leukocytes (WBC); [5]): 0.98 ± 0.55
- leukocytes, Day 5 after modeling (leukocytes (WBC); [5]): 9.33 ± 5.17
- difference in increasing leukocytes compared with G-22 (in words) (leukocytes (WBC); [6]): significant difference in increasing leukocytes and platelets
- Growth Rate of Proliferation %, 1 μg/ml [1]: 31.3%
- HD50 (drug concentration causing 50% hemolysis) (erythrocytes): 345 µg/mL
- tendency to cause hemolysis (in words) (erythrocytes; comparison among G-1, G-3, G-6, G-8): the most difficult to cause hemolysis
- effect on leucocyte count of leukopenia mice (in words) (WBC; 0.80 mg/kg gastric perfusion, versus model group, day 7 and day 14 after irradiation): increased obviously
- WBC, 1 week after administration (WBC; 0.80 mg/kg i.g. once a day for 7 days, before irradiation): 9.21 ± 2.16 109/L
- WBC, Day 3 after irradiation (WBC; [7]): 2.06 ± 0.75 109/L
- WBC, Day 7 after irradiation (WBC; [7]): 4.59 ± 1.52** 109/L
- WBC, Day 14 after irradiation (WBC; [7]): 6.37 ± 1.54** 109/L
- WBC, Normal (WBC; normal hemogram before administration (baseline), 0.80 mg/kg i.g. group): 8.96 ± 1.58 109/L

B1: G-CSF: recombinant granulocyte colony-stimulating factor, manufactured by QI LU Pharmaceutical Co., LTD., Shandong (protein, UniProt P09919 31-207, looked up)
Granulocyte …: TPLGPASSLPQSFLLKCLEQVRKIQGDGAALQEKLVSECATYKLCHPEELVLLGHSLGIPWAPLSSCPSQALQLAGCLSQLHSGLFLYQGLLQALEGISPELGPTLDTLQLDVADFATTIWQQMEELGMAPALQPTQGAMPAFASAFQRRAGGVLVASHLQSFLEVSYRVLRHLAQP
- platelets, Day 1 after modelng (platelets (PLT); [8]): 408.38 ± 86.38
- platelets, Day 5 after modeling (platelets (PLT); [8]): 206.64 ± 140.14
- effect in increasing platelets (in words) (platelets (PLT); G-CSF 40 μg/kg subcutaneous injection): no obvious effect in increasing platelets
- leukocytes (WBC), Day1 after modeling (leukocytes (WBC); [9]): 1.17 ± 0.33
- leukocytes (WBC), Day 3 after modeling (leukocytes (WBC); [9]): 5.93 ± 3.10
- leukocytes (WBC), Day 5 after modeling (leukocytes (WBC); [9]): 13.18 ± 5.53
- leukocytes, Day 1 after modeling (leukocytes (WBC); [10]): 0.63 ± 0.20
- leukocytes, Day 5 after modeling (leukocytes (WBC); [10]): 9.70 ± 5.28
- Growth Rate of Proliferation % ([1]; G-CSF positive drug at 5 pg/ml): 33.2%
- WBC, Day 3 after irradiation (WBC; [11]): 3.71 ± 1.11** 109/L
- WBC, Day 7 after irradiation (WBC; [11]): 4.56 ± 1.17** 109/L
- WBC, Day 14 after irradiation (WBC; [11]): 7.01 ± 1.52** 109/L
- WBC, 1 week after administration (WBC; G-CSF group before irradiation, G-CSF is given only from the irradiation day on): 9.89 ± 3.30 109/L
- WBC, Normal (WBC; normal hemogram (baseline), G-CSF group, not yet dosed): 8.64 ± 2.01 109/L
